Reference: US20230057568A1, “COMPOUNDS FOR TREATING FAMILIAL DYSAUTONOMIA” (PTC THERAPEUTICS, INC., priority 2019, published 2023)

Test system: Elongator complex protein 1 (ELP1, also referred to as IKBKAP)
Assay: IKBKAP-HTRF Assay
Assay type: cell-based, human
Settings: FD patient-derived fibroblasts GM04589, 48 hours incubation; for EC2x for IKBKAP protein expression (concentration producing two times the amount of IKBKAP protein vs DMSO vehicle control): 7-point concentration curve; for MFI (maximum fold increase in IKBKAP protein abundance relative to the vehicle control): HTRF
Procedure: The assay is used for the quantitative determination of Elongator complex protein 1 (ELP1, also referred to as IKBKAP) concentration in cell lysates using the HTRF® (Homogeneous Time-Resolved Fluorescence) technology. IKBKAP is detected in a sandwich HTRF assay by use of an anti-IKAP antibody labeled with a donor and an anti-IKAP antibody labeled with an acceptor.
Cells were thawed and incubated in DMEM-10% FBS for 72 hours. Cells were trypsinized, counted, and re-suspended to a concentration of 50,000 cells/mL in DMEM-10% FBS. A 199 μL, aliquot of the cell suspensions were plated at 10,000 cells per well in a 96 well microtiter plate and incubated for 3 to 5 hours. […] Test compounds were serially diluted 3.16-fold in 100% DMSO to generate a 7-point concentration curve. A 1 μL aliquot of 200× compound solution was transferred to cell-containing wells, and cells were incubated for 48 hours in a cell culture incubator (37° C., 5% CO2, 100% relative humidity). Triplicate samples were set up for each compound concentration. After 48 hours, the supernatant was removed from the cells and 50 μL of the 1× LB4 lysis buffer, containing protease inhibitors, was added to the cells and incubated with shaking at room temperature for 1 hour. A 36 μL aliquot of this lysate was subsequently transferred to the 384-well plate containing 4 μL of the antibody solution (1:50 dilution of anti IKAP d2 and anti-IKAP K(9+8) in detection buffer). The 384-well plate was then centrifuged for 1 minute to bring the solutions to the bottom of the plate and incubated overnight at 4° C. Fluorescence for each well of the plate at 665 nm and 620 nm was measured was on the EnVision plate reader (Perkin Elmer). The AF for each sample is calculated by: […]
wherein Signal is the normalized fluorescence for each sample well and Blank is the average normalized average fluorescence for the Blank control wells.
The maximum fold increase (MFI) in IKBKAP protein abundance for compounds of Formula (I) or a form thereof relative to the vehicle control are provided in Table 1. MFI was calculated by dividing the AF value for each sample well by the sample AF for the vehicle control wells.
The EC2× for IKBKAP protein expression obtained from the 7-point concentration curve generated for each test compound according to the protocol in Biological Example 1 are also provided in Table 1. The term “EC2× for IKBKAP protein expression” is defined as the concentration of test compound that is effective in producing two times the amount of IKBKAP protein in a FD patient cell compared to the amount produced from the DMSO vehicle control.

Q: Which results are given for `Clc1nc(NCc2ccncc2)c2sccc2n1` [Cpd 1, 2-chloro-N-[(pyridin-4-yl)methyl]thieno[3,2-d]pyrimidin-4-amine]?
A: EC2x for IKBKAP protein expression (concentration producing two times the amount of IKBKAP protein vs DMSO vehicle control): * (EC2×>1 μM); MFI (maximum fold increase in IKBKAP protein abundance relative to the vehicle control): **** (between >3.9 and <4.9)

Q: With `Clc1nc(NCc2ccco2)c2sccc2n1` [Cpd 2, 2-chloro-N-[(furan-2-yl)methyl]thieno[3,2-d]pyrimidin-4-amine] as the compound, how does the “EC2x for IKBKAP protein expression (concentration producing two times the amount of IKBKAP protein vs DMSO vehicle control)” value read?
A: Its value is “* (EC2×>1 μM)”.

Q: And the “MFI (maximum fold increase in IKBKAP protein abundance relative to the vehicle control)” value?
A: Its value is “*** (between >2.9 and <3.9)”.

Q: What does the source list for `C[C@H](N)Cc1cc2nc(Cl)nc(NCc3ccco3)c2s1` [Cpd 3, 6-[(2S)-2-aminopropyl]-2-chloro-N-[(furan-2-yl)methyl]thieno[3,2-d]pyrimidin-4-amine]?
A: EC2x for IKBKAP protein expression (concentration producing two times the amount of IKBKAP protein vs DMSO vehicle control): **** (between >0.005 μM and ≤0.02 μM); MFI (maximum fold increase in IKBKAP protein abundance relative to the vehicle control): **** (between >3.9 and <4.9)

Q: Which results are given for `CC[C@H](N)Cc1cc2nc(Cl)nc(NCc3ccco3)c2s1` [Cpd 4, 6-[(2S)-2-aminobutyl]-2-chloro-N-[(furan-2-yl)methyl]thieno[3,2-d]pyrimidin-4-amine]?
A: EC2x for IKBKAP protein expression (concentration producing two times the amount of IKBKAP protein vs DMSO vehicle control): **** (between >0.005 μM and ≤0.02 μM); MFI (maximum fold increase in IKBKAP protein abundance relative to the vehicle control): **** (between >3.9 and <4.9)

Q: Which “EC2x for IKBKAP protein expression (concentration producing two times the amount of IKBKAP protein vs DMSO vehicle control)” value does the source give for `CC(C)[C@H](N)Cc1cc2nc(Cl)nc(NCc3ccco3)c2s1` [Cpd 5, 6-[(2R)-2-amino-3-methylbutyl]-2-chloro-N-[(furan-2-yl)methyl]thieno[3,2-d]pyrimidin-4-amine] here?
A: Its value is “*** (between >0.02 μM and ≤0.5 μM)”.

Q: What about the “MFI (maximum fold increase in IKBKAP protein abundance relative to the vehicle control)” value of the same compound?
A: Its value is “*** (between >2.9 and <3.9)”.

Q: With `CC[C@H](C)[C@H](N)Cc1cc2nc(Cl)nc(NCc3ccco3)c2s1` [Cpd 6, 6-[(2R,3S)-2-amino-3-methylpentyl]-2-chloro-N-[(furan-2-yl)methyl]thieno[3,2-d]pyrimidin-4-amine] as the compound, how does the “EC2x for IKBKAP protein expression (concentration producing two times the amount of IKBKAP protein vs DMSO vehicle control)” value read?
A: Its value is “*** (between >0.02 μM and ≤0.5 μM)”.

Q: What about the “MFI (maximum fold increase in IKBKAP protein abundance relative to the vehicle control)” value of the same compound?
A: The value was “*** (between >2.9 and <3.9)”.

Q: What does the source list for `CC(C)(C)[C@H](N)Cc1cc2nc(Cl)nc(NCc3ccco3)c2s1` [Cpd 7, 6-[(2R)-2-amino-3,3-dimethylbutyl]-2-chloro-N-[(furan-2-yl)methyl]thieno[3,2-d]pyrimidin-4-amine]?
A: EC2x for IKBKAP protein expression (concentration producing two times the amount of IKBKAP protein vs DMSO vehicle control): ** (between >0.5 μL and ≤1 μM); MFI (maximum fold increase in IKBKAP protein abundance relative to the vehicle control): * (MFI<1.9)

Q: How did the “EC2x for IKBKAP protein expression (concentration producing two times the amount of IKBKAP protein vs DMSO vehicle control)” value turn out when `C[C@H](N)Cc1cc2ncnc(NCc3ccco3)c2s1` [Cpd 8, 6-[(2S)-2-aminopropyl]-N-[(furan-2-yl)methyl]thieno[3,2-d]pyrimidin-4-amine] was run?
A: Its value is “*** (between >0.02 μM and ≤0.5 μM)”.

Q: What about the “MFI (maximum fold increase in IKBKAP protein abundance relative to the vehicle control)” value of the same compound?
A: Its value is “*** (between >2.9 and <3.9)”.

Q: Which results are given for `C[C@H](N)Cc1cc2nc(Cl)nc(NCc3ccncc3)c2s1` [Cpd 9, 6-[(2S)-2-aminopropyl]-2-chloro-N-[(pyridin-4-yl)methyl]thieno[3,2-d]pyrimidin-4-amine]?
A: EC2x for IKBKAP protein expression (concentration producing two times the amount of IKBKAP protein vs DMSO vehicle control): **** (between >0.005 μM and ≤0.02 μM); MFI (maximum fold increase in IKBKAP protein abundance relative to the vehicle control): ***** (>4.9)

Q: Which results are given for `CC[C@H](N)Cc1cc2nc(Cl)nc(NCc3cccs3)c2s1` [Cpd 10, 6-[(2S)-2-aminobutyl]-2-chloro-N-[(thiophen-2-yl)methyl]thieno[3,2-d]pyrimidin-4-amine]?
A: EC2x for IKBKAP protein expression (concentration producing two times the amount of IKBKAP protein vs DMSO vehicle control): *** (between >0.02 μM and ≤0.5 μM); MFI (maximum fold increase in IKBKAP protein abundance relative to the vehicle control): **** (between >3.9 and <4.9)

Q: `C[C@H](N)Cc1cc2ncnc(NCc3ccncc3)c2s1` [Cpd 11, 6-[(2S)-2-aminopropyl]-N-[(pyridin-4-yl)methyl]thieno[3,2-d]pyrimidin-4-amine] was tested. Which “EC2x for IKBKAP protein expression (concentration producing two times the amount of IKBKAP protein vs DMSO vehicle control)” value did it give?
A: Its value is “*** (between >0.02 μM and ≤0.5 μM)”.

Q: What about the “MFI (maximum fold increase in IKBKAP protein abundance relative to the vehicle control)” value of the same compound?
A: The value was “**** (between >3.9 and <4.9)”.

Q: For `Cc1c(C[C@H](C)N)sc2c(NCc3ccco3)nc(Cl)nc12` [Cpd 12, 6-[(2S)-2-aminopropyl]-2-chloro-N-[(furan-2-yl)methyl]-7-methylthieno[3,2-d]pyrimidin-4-amine], which “EC2x for IKBKAP protein expression (concentration producing two times the amount of IKBKAP protein vs DMSO vehicle control)” value is on record?
A: Its value is “***** (<0.005 μM)”.

Q: And the “MFI (maximum fold increase in IKBKAP protein abundance relative to the vehicle control)” value?
A: The value was “***** (>4.9)”.

Q: Which results are given for `CC[C@H](N)Cc1sc2c(NCc3ccco3)nc(Cl)nc2c1C` [Cpd 13, 6-[(2S)-2-aminobutyl]-2-chloro-N-[(furan-2-yl)methyl]-7-methylthieno[3,2-d]pyrimidin-4-amine]?
A: EC2x for IKBKAP protein expression (concentration producing two times the amount of IKBKAP protein vs DMSO vehicle control): ***** (<0.005 μM); MFI (maximum fold increase in IKBKAP protein abundance relative to the vehicle control): ***** (>4.9)

Q: How did the “EC2x for IKBKAP protein expression (concentration producing two times the amount of IKBKAP protein vs DMSO vehicle control)” value turn out when `C[C@H](N)Cc1cc2nc(Cl)nc(NCc3cccs3)c2s1` [Cpd 14, 6-[(2S)-2-aminopropyl]-2-chloro-N-[(thiophen-2-yl)methyl]thieno[3,2-d]pyrimidin-4-amine] was run?
A: Its value is “**** (between >0.005 μM and ≤0.02 μM)”.

Q: What about the “MFI (maximum fold increase in IKBKAP protein abundance relative to the vehicle control)” value of the same compound?
A: Its value is “***** (>4.9)”.

Q: Which results are given for `Cc1nc(NCc2ccco2)c2sc(C[C@H](C)N)c(C)c2n1` [Cpd 15, 6-[(2S)-2-aminopropyl]-N-[(furan-2-yl)methyl]-2,7-dimethylthieno[3,2-d]pyrimidin-4-amine]?
A: EC2x for IKBKAP protein expression (concentration producing two times the amount of IKBKAP protein vs DMSO vehicle control): **** (between >0.005 μM and ≤0.02 μM); MFI (maximum fold increase in IKBKAP protein abundance relative to the vehicle control): ***** (>4.9)

Q: How did the “EC2x for IKBKAP protein expression (concentration producing two times the amount of IKBKAP protein vs DMSO vehicle control)” value turn out when `CCc1nc(NCc2ccco2)c2sc(C[C@H](C)N)c(C)c2n1` [Cpd 16, 6-[(2S)-2-aminopropyl]-2-ethyl-N-[(furan-2-yl)methyl]-7-methylthieno[3,2-d]pyrimidin-4-amine] was run?
A: The value was “*** (between >0.02 μM and ≤0.5 μM)”.

Q: And the “MFI (maximum fold increase in IKBKAP protein abundance relative to the vehicle control)” value?
A: The value was “*** (between >2.9 and <3.9)”.

Q: With `Cc1c(C[C@H](C)N)sc2c(NCc3ccco3)nc(C3CC3)nc12` [Cpd 17, 6-[(2S)-2-aminopropyl]-2-cyclopropyl-N-[(furan-2-yl)methyl]-7-methylthieno[3,2-d]pyrimidin-4-amine] as the compound, how does the “EC2x for IKBKAP protein expression (concentration producing two times the amount of IKBKAP protein vs DMSO vehicle control)” value read?
A: Its value is “* (EC2×>1 μM)”.

Q: And the “MFI (maximum fold increase in IKBKAP protein abundance relative to the vehicle control)” value?
A: The value was “* (MFI<1.9)”.

Q: Which results are given for `Cc1csc2c(NCc3ccco3)nc(Cl)nc12` [Cpd 18, 2-chloro-N-[(furan-2-yl)methyl]-7-methylthieno[3,2-d]pyrimidin-4-amine]?
A: EC2x for IKBKAP protein expression (concentration producing two times the amount of IKBKAP protein vs DMSO vehicle control): *** (between >0.02 μM and ≤0.5 μM); MFI (maximum fold increase in IKBKAP protein abundance relative to the vehicle control): ***** (>4.9)

Q: What does the source list for `Cc1c(C[C@@H](N)CO)sc2c(NCc3ccco3)nc(Cl)nc12` [Cpd 19, (2R)-2-Amino-3-(2-chloro-4-{[(furan-2-yl)methyl]amino}-7-methylthieno[3,2-d]pyrimidin-6-yl)propan-1-ol]?
A: EC2x for IKBKAP protein expression (concentration producing two times the amount of IKBKAP protein vs DMSO vehicle control): ***** (<0.005 μM); MFI (maximum fold increase in IKBKAP protein abundance relative to the vehicle control): ***** (>4.9)

Q: Which “EC2x for IKBKAP protein expression (concentration producing two times the amount of IKBKAP protein vs DMSO vehicle control)” value does the source give for `Cc1c(C[C@H](C)N)sc2c(NCc3ccco3)nc(C(N)=O)nc12` [Cpd 20, 6-[(2S)-2-aminopropyl]-4-{[(furan-2-yl)methyl]amino}-7-methylthieno[3,2-d]pyrimidine-2-carboxamide] here?
A: The value was “* (EC2×>1 μM)”.

Q: What about the “MFI (maximum fold increase in IKBKAP protein abundance relative to the vehicle control)” value of the same compound?
A: Its value is “** (between >1.9 and <2.9)”.

Q: What does the source list for `Cc1c(C[C@H](C)N)sc2c(NCc3ccco3)nc(C#N)nc12` [Cpd 21, 6-[(2S)-2-aminopropyl]-4-{[(furan-2-yl)methyl]amino}-7-methylthieno[3,2-d]pyrimidine-2-carbonitrile]?
A: EC2x for IKBKAP protein expression (concentration producing two times the amount of IKBKAP protein vs DMSO vehicle control): **** (between >0.005 μM and ≤0.02 μM); MFI (maximum fold increase in IKBKAP protein abundance relative to the vehicle control): ***** (>4.9)

Q: `N[C@@H](CO)Cc1cc2nc(Cl)nc(NCc3ccco3)c2s1` [Cpd 22, (2R)-2-amino-3-(2-chloro-4-{[(furan-2-yl)methyl]amino}thieno[3,2-d]pyrimidin-6-yl)propan-l-ol] was tested. Which “EC2x for IKBKAP protein expression (concentration producing two times the amount of IKBKAP protein vs DMSO vehicle control)” value did it give?
A: The value was “***** (<0.005 μM)”.

Q: What about the “MFI (maximum fold increase in IKBKAP protein abundance relative to the vehicle control)” value of the same compound?
A: The value was “***** (>4.9)”.
